Literature values, collected in PMC6343925, “Cholesterol re-organisation and lipid de-packing by arginine-rich cell penetrating peptides: Role in membrane translocation” (PLoS ONE, 2019).
No end group written: not given here.

Details: membranes contained PG; same experimental approach

Row | translocation into LUVs | Molecule
1 | able to translocate | N=C(N)NCCC[C@H](NC(=O)[C@H](CCCNC(=N)N)NC(=O)[C@H](CCCNC(=N)N)NC(=O)[C@H](CCCNC(=N)N)NC(=O)[C@H](CCCNC(=N)N)NC(=O)[C@H](CCCNC(=N)N)NC(=O)[C@H](CCCNC(=N)N)NC(=O)[C@H](CCCNC(=N)N)NC(=O)[C@@H](N)CCCNC(=N)N)C(N)=O [R9, Nona-arginine]
2 | able to translocate | RRWWRRWRR-NH2 [RW9]
